Test results reported in patent publication US10016382B2, “Method for decreasing skeletal muscle damage and/or oxidative stress in mammals” (LONZA INC., priority 2014, dated 2018).
Values joined by “and” are separate entries in the source; they are usually repeats but may differ in a detail not shown here. Equal entries are not always repeated.

How the values were obtained:
Assay type in all cases: in vivo, dog
[1] = test system: Labrador Retrievers; experiment: Time of final 15 mile run, Example 2 part one (14 week crossover study); conditions: Ex.2 part one, 250 mg/d, 15 mile run at end of 14 week study, mean ± SEM
Method: Part One: For part one of the study, fifty-six Labrador Retrievers were divided into two equal groups of 28 (14 males, 14 females) based on gender, BW, genetics, age, excitement level, frame size, and lean body mass. The dogs were out of a minimum of 10 different bitches and at least as many sires. Prior to the start of the study, the dogs were tested for lean mass, muscle damage, and antioxidant status as described in Example 1. In addition to the low carnitine basal diet, twenty-eight of the Labs received 250 mg/day of L-carnitine (batch D23013) and 3.75 g/d of sugar, while twenty-eight of the Labs received 4 g/d of sugar. Both the L-carnitine and control performance dogs were put through a weekly running program consisting of two evenly distributed endurance runs. Groups ranging between 6 and 10 dogs were run together, including both treatments in each group. The endurance runs increased incrementally by 0.5 miles per week (5 miles/session increasing to 10 miles per session over an 11 week period). The dogs were allowed a 1 day rest between runs and a 3 day rest before a scheduled exercise distance increase. The dogs were put through maintenance runs of 5 miles twice in the 12th week and then 2 miles twice in the 13th week. All dogs had at least 4 days of rest prior to the final 15 miles run in the 14th week. Each performance dog wore the Actical activity monitor and GPS tracking collar during the last 15 mile endurance run. The final run was conducted in a manner analogous to that of Example 1. All activity was accurately and precisely calculated using the GPS tracking monitors. Immediately following the 15 mile endurance run, each dog was placed in a kennel and evaluated for recovery time in body temperature (every 15 minutes for 2 hours) and heart rate (every 2 minutes for up to 20 minutes until basal beats per minute (BPM) was reached). Body temperature and heart rate were measured as described in Example 1.

[2] = test system: Thiobarbituric acid reactive substances (TBARS); experiment: Serum TBARS, Example 2 part one; conditions: for TBARS level, serum: Ex.2 part one, 250 mg/d; for TBARS: serum
Method: Twenty-four hours after test dogs ran the last 15 mile endurance run, serum samples were taken to evaluate biomarkers for muscle damage and antioxidant status. Blood samples were taken 1) just prior to the beginning of the study; 2) 1 day prior to running the final 15 mile run on the 14th week; 3) 1 hour immediately following the 15 mile run; and 4) 24 hours following the final 15 mile run. After a blood sample was drawn, it was allowed to clot for 30 minutes at 25° C. before being centrifuged for 15 minutes at 2000 g at 4° C. Serum was aliquoted into 0.65 mL microcentrifuge tubes and stored at −80° C. until being assayed at the end of the study for creatine kinase, canine myoglobin, thiobarbituric acid reactive substances (TBARS), and total antioxidant capacity (TAC) using the commercially available kits described in Example 1.

[3] = test system: skeletal protein; experiment: Fractional synthesis rate (FSR) of skeletal protein, 15N Phe infusion, Example 2 part two
Method: At the end of the 60 day training program, 24 of the dogs (12 resting and 12 running) were infused with a bolus dose of 15N Phe. […] Forty-five minutes after infusion, a 5 mm Bergstrom muscle biopsy needle was used to take a biopsy of the biceps femoris muscle. The muscle samples were quickly frozen in liquid nitrogen and placed in a -80° C. freezer for later analysis]. Twenty-four hours after the resting dogs were infused with 15N Phe, the remaining 12 dogs (6 non-carnitine; 3 male and 3 female and 6 L-carnitine; 3 male and 3 female) were run for a 15 mile endurance run. Following a 30 minute period of measured physiological recovery (heart rate and body temperature), test dogs that completed the 15 mile run were infused with a 2% 15N Phe solution as described above; muscle biopsies were taken 45 minutes after infusion. To process the samples, the acid-soluble fraction containing free amino acids was removed by addition of 2% (w/v) perchloric acid. After homogenization, samples were centrifuged at 3,000×g, and the supernatant, containing free amino acids, was removed. The protein precipitate was washed three times with 2% perchloric acid before being hydrolyzed in 6N HCL. The supernatant and precipitate, respectively, were then run through an ion-exchange column packed with Dowex 50WX8-200. Phenylalanine and 3-methylhistidine (3-MH) were eluted with 2 mL of 4N NH4OH and 1 mL of nanopure H2O into a new vial and then dried under vacuum. The tert-butyldimethylsilyl (tBDMS) derivative was formed by adding 800 μL of C2CH3CN-MTBSTFA (1:1) and incubating at 110° C. for 60 minutes. Analysis of the protein precipitate of muscle samples and free amino acids were carried out on an Agilent 7890A GC system attached to an Agilent 6975C mass spectrometer. Helium was used as the carrier gas at 1 mL/min. A 1 μL volume was injected into the GC/MS in splitless mode. Oven temperature began at 150° C. and increased by 50° C./min until reaching 200° C., after which the temperature was increased by 20° C./min until reaching 270° C. The temperature was held at 270° C. for 5.5 minutes. The mass spectrometer was operated under EI and SIM modes. The 394 and 395 m/z fragments, which represented the M and M+1 fragments of phenylalanine, were monitored.

C[N+](C)(C)C[C@H](O)CC(=O)[O-] [L-carnitine]
Final Run Time ([1]; Female): 73.7 ± 0.86 min
Final Run Time ([1]; Male): 76.11 ± 1.64 min
Final Run Time ([1]; both sexes): 74.90 min and 74.9 ± 0.94 min
TBARS level, serum ([2]; post-run 1 hr, MDA): 16.45 µM
TBARS level, serum ([2]; prior to the 15 mile endurance run): 15.36 μM malondialdehyde (MDA)
TBARS ([2]; FEMALES, Baseline): 13.03 ± 1.29 μM MDA
TBARS ([2]; FEMALES, Post-Run 1 Hr): 17.44 ± 2.26 μM MDA
TBARS ([2]; FEMALES, Post-Run 24 Hr): 26.01 ± 3.09 μM MDA
TBARS ([2]; FEMALES, Pre-Run): 16.68 ± 2.16 μM MDA
TBARS ([2]; MALES, Baseline): 14.51 ± 1.38 μM MDA
TBARS ([2]; MALES, Post-Run 1 Hr): 15.46 ± 1.79 μM MDA
TBARS ([2]; MALES, Post-Run 24 Hr): 19.62 ± 2.38 μM MDA
TBARS ([2]; MALES, Pre-Run): 14.03 ± 2.24 μM MDA
TBARS ([2]; Whole Groups, Baseline): 13.77 ± 0.94 μM MDA
TBARS ([2]; Whole Groups, Post-Run 1 Hr, Post-Run 1 Hr): 16.45 ± 1.43 μM MDA
TBARS ([2]; Whole Groups, Post-Run 24 Hr, Post-Run 24 Hr): 22.81 ± 2.01 μM MDA
TBARS ([2]; Whole Groups, Pre-Run): 15.36 ± 1.55 μM MDA
% FSR of skeletal protein vs control ([3]; Ex.2 part two, 250 mg/d, male or female dogs): did not increase
FSR ([3]; Female, no run): 5.04%
FSR ([3]; Female, run): 2.54%
FSR ([3]; Male, no run): 3.61%
FSR ([3]; Male, run): 4.63%
